Earlier results in US8748086B2, “Aqueous solution for the preservation of tissues and organs” (Universidad de Barcelona, priority 2008, dated 2014).

Tests used:
hearts = settings: tacrolimus in UW preservation solution; Rajesh et al. 2003
[1] = tested on: non-steatotic and steatotic livers; settings: prolonged ischemic periods; Ben Mosbah et al. 2006

Compound	effect on preservation of hearts (hearts)	capacity of the preservation solution to protect livers [1]
C=CC[C@@H]1/C=C(\C)C[C@H](C)C[C@H](OC)[C@H]2O[C@@](O)(C(=O)C(=O)N3CCCC[C@H]3C(=O)O[C@H](/C(C)=C/[C@@H]3CC[C@@H](O)[C@H](OC)C3)[C@H](C)[C@@H](O)CC1=O)[C@H](C)C[C@@H]2OC [tacrolimus, Tacrolimus]	failed to have any effect on preservation	–
COc1ccc(CN2CCNCC2)c(OC)c1OC [trimetazidine]	–	improved the capacity of this standard preservation solution to protect
